Results taken from ChEMBL document CHEMBL4219026, “A Cereblon Modulator (CC-220) with Improved Degradation of Ikaros and Aiolos” (J Med Chem, 2018).
Active and inactive are the calls of the source. The rule behind the calls is not given here.

Legend:
[1] = biological target: Protein cereblon/Eukaryotic peptide chain release factor GTP-binding subunit ERF3A (Homo sapiens) (UniProt Q96SW2+P15170); experiment: Induction of cereblon-mediated GSPT1 degradation in human DF15 cells expressing ePL-tagged GSPT1 at 0.0005 to 10 uM after 4 hrs by luminometric analysis; type: cell-based
Chain of Protein cereblon/Eukaryotic peptide chain release factor GTP-binding subunit ERF3A (Homo sapiens) (P15170 whole entry, looked up): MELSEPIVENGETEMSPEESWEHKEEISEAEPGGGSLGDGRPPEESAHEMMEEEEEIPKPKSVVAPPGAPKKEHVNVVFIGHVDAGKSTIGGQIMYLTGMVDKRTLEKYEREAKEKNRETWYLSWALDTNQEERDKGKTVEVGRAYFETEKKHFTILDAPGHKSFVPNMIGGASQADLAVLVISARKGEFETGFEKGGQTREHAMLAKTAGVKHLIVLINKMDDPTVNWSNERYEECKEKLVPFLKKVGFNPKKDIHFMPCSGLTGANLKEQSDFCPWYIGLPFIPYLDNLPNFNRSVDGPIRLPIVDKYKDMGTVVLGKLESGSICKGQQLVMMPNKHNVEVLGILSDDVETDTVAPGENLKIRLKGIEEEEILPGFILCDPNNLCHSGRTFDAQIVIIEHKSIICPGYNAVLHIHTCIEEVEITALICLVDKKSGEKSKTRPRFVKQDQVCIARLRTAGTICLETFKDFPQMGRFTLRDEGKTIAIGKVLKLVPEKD
Chain of Protein cereblon/Eukaryotic peptide chain release factor GTP-binding subunit ERF3A (Homo sapiens) (Q96SW2 whole entry, looked up): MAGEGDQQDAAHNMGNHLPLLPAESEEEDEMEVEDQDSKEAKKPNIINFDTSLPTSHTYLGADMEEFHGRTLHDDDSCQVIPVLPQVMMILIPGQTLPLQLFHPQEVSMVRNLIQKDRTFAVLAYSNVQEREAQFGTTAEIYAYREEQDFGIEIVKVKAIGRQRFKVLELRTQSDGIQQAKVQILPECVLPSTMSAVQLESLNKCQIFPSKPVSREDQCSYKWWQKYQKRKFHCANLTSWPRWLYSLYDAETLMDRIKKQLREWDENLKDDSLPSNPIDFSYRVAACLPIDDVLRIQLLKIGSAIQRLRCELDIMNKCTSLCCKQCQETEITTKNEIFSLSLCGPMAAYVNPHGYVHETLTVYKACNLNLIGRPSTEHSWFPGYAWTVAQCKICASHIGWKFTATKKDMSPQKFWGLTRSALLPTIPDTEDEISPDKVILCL

[2] = biological target: Cereblon/Casein kinase I alpha (Homo sapiens) (UniProt P48729+Q96SW2); experiment: Induction of cereblon-mediated CK1alpha (unknown origin) degradation in at 0.0005 to 10 uM after 4 hrs by cell-based chemiluminescent assay
Chain of Cereblon/Casein kinase I alpha (Homo sapiens) (P48729 2-337 limits assumed): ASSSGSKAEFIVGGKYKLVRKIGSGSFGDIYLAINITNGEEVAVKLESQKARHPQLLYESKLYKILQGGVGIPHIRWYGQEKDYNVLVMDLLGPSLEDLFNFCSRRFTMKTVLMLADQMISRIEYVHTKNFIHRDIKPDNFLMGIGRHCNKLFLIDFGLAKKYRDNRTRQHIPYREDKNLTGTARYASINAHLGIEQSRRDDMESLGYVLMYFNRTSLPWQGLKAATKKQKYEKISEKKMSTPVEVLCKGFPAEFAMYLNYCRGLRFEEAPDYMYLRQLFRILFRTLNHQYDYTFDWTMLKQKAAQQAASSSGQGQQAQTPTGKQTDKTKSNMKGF
Chain of Cereblon/Casein kinase I alpha (Homo sapiens) (Q96SW2 whole entry partner): as the sequence (Q96SW2 whole entry, looked up) above

O=C1CC[C@H](N2Cc3c(OCc4ccc(CN5CCOCC5)cc4)cccc3C2=O)C(=O)N1
Activity [1]: inactive
Activity [2]: inactive
